Reference: the supplement of paper PMC10307832

What was measured:
Assay in all cases: relative viability (nuclei count vs DMSO), 5 days (fraction); higher = more cells survive
[1] = compound: O=c1[nH]cc(F)c(=O)[nH]1 [5-Fluorouracil] + Nc1nc2[nH]cc(CCc3ccc(C(=O)N[C@@H](CCC(=O)O)C(=O)O)cc3)c2c(=O)[nH]1 [Pemetrexed] (partner 0.2 µM)
In short: (§1)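 Lung cancer cell lines were seeded in 1536-well plates and dosed by pin tool the next day, with either a single drug or a fixed anchor-drug dose combined with five library-drug doses (not always all listed) spaced in √10 steps. Five days later, one step fixed the cells and stained their nuclei (final 0.05% Triton X-100, 1% formaldehyde, 1 ug/ml Hoechst), and nuclei were counted on 4× images. Relative viability is the nuclei count in treated wells divided by the count in vehicle wells, and each value is the median of duplicate plates.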

[2] = compound: CN[C@@H]1C[C@H]2O[C@@](C)([C@@H]1OC)n1c3ccccc3c3c4c(c5c6ccccc6n2c5c31)C(=O)NC4 [Staurosporine] + CC(=O)c1c(C)c2cnc(Nc3ccc(N4CCNCC4)cn3)nc2n(C2CCCC2)c1=O [Palbociclib] (partner 0.5 µM)
In short: as §1

[3] = compound: CC1=C(CC(=O)O)c2cc(F)ccc2/C1=C\c1ccc([S+](C)[O-])cc1 [Sulindac] + CC1(C)CCC(c2ccc(Cl)cc2)=C(CN2CCN(c3ccc(C(=O)NS(=O)(=O)c4ccc(N[C@H](CCN5CCOCC5)CSc5ccccc5)c(S(=O)(=O)C(F)(F)F)c4)cc3)CC2)C1 [Navitoclax] (partner 0.5 µM)
In short: as §1

[4] = compound: CN[C@@H]1C[C@H]2O[C@@](C)([C@@H]1OC)n1c3ccccc3c3c4c(c5c6ccccc6n2c5c31)C(=O)NC4 [Staurosporine] + CC1(C)CCC(c2ccc(Cl)cc2)=C(CN2CCN(c3ccc(C(=O)NS(=O)(=O)c4ccc(N[C@H](CCN5CCOCC5)CSc5ccccc5)c(S(=O)(=O)C(F)(F)F)c4)cc3)CC2)C1 [Navitoclax] (partner 0.5 µM)
In short: as §1

Cell Line | relative viability ([1]; first compound 0.02 µM) | relative viability ([1]; first compound 0.2 µM) | relative viability ([1]; first compound 0.6325 µM) | relative viability ([1]; first compound 2 µM) | relative viability ([2]; first compound 0.005 µM) | relative viability ([2]; first compound 0.01581 µM) | relative viability ([2]; first compound 0.05 µM) | relative viability ([2]; first compound 0.1581 µM) | relative viability ([2]; first compound 0.5 µM) | relative viability ([3]; first compound 0.08 µM) | relative viability ([3]; first compound 0.253 µM) | relative viability ([3]; first compound 0.8 µM) | relative viability ([3]; first compound 2.53 µM) | relative viability ([3]; first compound 8 µM) | relative viability ([4]; first compound 0.005 µM) | relative viability ([4]; first compound 0.01581 µM) | relative viability ([4]; first compound 0.05 µM) | relative viability ([4]; first compound 0.1581 µM) | relative viability ([4]; first compound 0.5 µM)
NCI-H441 | 0.262 | 0.27 | 0.235 | 0.239 | 0.161 | 0.12 | 0.118 | 0.114 | 0.112 | 0.395 | 0.588 | 0.519 | 0.478 | 0.822 | 0.521 | 0.333 | 0.325 | 0.16 | 0.17
NCI-H838 | 0.261 | 0.253 | 0.257 | 0.249 | 0.151 | 0.138 | 0.151 | 0.121 | 0.0855 | 1.33 | 1.19 | 1.1 | 1.18 | 1.39 | 0.307 | 0.22 | 0.203 | 0.161 | 0.113
NCI-H23 | 0.944 | 0.63 | 0.408 | 0.337 | 0.255 | 0.253 | 0.162 | 0.147 | 0.131 | 0.809 | 0.84 | 0.785 | 0.84 | 0.923 | 0.764 | 0.412 | 0.257 | 0.2 | 0.12
NCI-H1395 | 0.743 | 0.994 | 0.902 | 0.893 | 0.53 | 0.438 | 0.406 | 0.393 | 0.306 | 1.2 | 1.17 | 1.1 | 1.19 | 1.2 | 1.05 | 0.495 | 0.458 | 0.327 | 0.301
NCI-H647 | 0.187 | 0.182 | 0.176 | 0.164 | 0.239 | – | 0.0896 | 0.0475 | 0.0477 | 1.48 | 1.26 | 0.991 | 1.04 | 1.53 | 0.728 | 0.142 | 0.291 | 0.0554 | 0.0386
NCI-H520 | 0.625 | 0.742 | 0.541 | 0.41 | 0.272 | 0.262 | 0.159 | 0.116 | 0.12 | 1.33 | 1.17 | 1.03 | 1.04 | 1.44 | 1.15 | 0.935 | 0.408 | 0.204 | 0.13
